In experiment [1] the target is T1, Full length human recombinant HDAC8 protein (Homo sapiens, UniProt Q9BY41).
T1 construct: Full length human recombinant HDAC8 protein was expressed in baculoviral system; made in house
T1 sequence (Q9BY41 1-377): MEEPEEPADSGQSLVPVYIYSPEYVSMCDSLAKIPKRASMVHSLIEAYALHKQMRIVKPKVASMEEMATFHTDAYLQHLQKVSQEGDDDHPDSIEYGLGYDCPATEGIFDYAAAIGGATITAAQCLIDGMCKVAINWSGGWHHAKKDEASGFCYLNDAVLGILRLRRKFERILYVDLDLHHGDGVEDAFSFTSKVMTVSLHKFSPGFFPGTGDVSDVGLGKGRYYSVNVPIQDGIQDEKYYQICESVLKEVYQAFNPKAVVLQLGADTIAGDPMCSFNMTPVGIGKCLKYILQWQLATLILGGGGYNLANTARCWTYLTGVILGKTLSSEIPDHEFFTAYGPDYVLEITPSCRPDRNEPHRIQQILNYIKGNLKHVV
The experiment can be described thus: In vitro histone deacetylase assay: enzymatic HDAC8 electrophoretic mobility shift assay. Format: biochemical. The note with it: electrophoretic mobility shift assay; enzyme 1 nM; 2 μM fluorescently labeled peptide substrate RHKK(Ac)-NH2; 25° C.; 12 concentrations; read-out: HDAC8 IC50. For orientation: A gel shift assay detects complexes by their altered migration in electrophoresis.

Experiment [2] concerns the target T2, Recombinant N-terminal GST tag full-length human HDAC8 (Homo sapiens, UniProt Q9BY41).
T2 construct: Recombinant N-terminal GST tag full-length human HDAC8; purchased SignalChem H90-30G-1000; host or cells: baculovirus in Sf9 insect cells
T2 sequence (Q9BY41 1-377): T1 sequence (Q9BY41 1-377)
Put plainly: HDAC8 probe binding assay, time resolved fluorescence (TRF) format. The note with it: compounds grouped by IC50 range (Table 2). The procedure, abridged:
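Probe-binding TRF assay using full-length N-GST human HDAC8 expressed in baculovirus-infected Sf9 cells, incubated 16 h at room temperature and read at 340 nm excitation, 485/535 nm emission. Percent inhibition was normalised to no-enzyme and DMSO controls. IC50 was obtained by 4-parameter logistic fit.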

As to `CCC1Oc2ccc(C(=O)NO)cc2N(Cc2ccc(OC)cc2)C1=O` (centres unmarked) [Compound I-99, 2-ethyl-N-hydroxy-4-(4-methoxybenzyl)-3-oxo-3,4-dihydro-2H-benzo[b][1,4]oxazine-6-carboxamide], the results for the IC50 in experiment [1] and in experiment [2] were below 0.025 µM and at most 0.025 µM, respectively.

With `COc1ccc(CN2C(=O)C(C(C)C)Oc3ccc(C(=O)NO)cc32)cc1` (centres unmarked) [Compound I-100, N-hydroxy-2-isopropyl-4-(4-methoxybenzyl)-3-oxo-3,4-dihydro-2H-benzo[b][1,4]oxazine-6-carboxamide], the IC50 is below 0.025 µM in experiment [1] and at most 0.025 µM in experiment [2].

On to `COc1ccc(CN2C(=O)C(c3ccccc3)Oc3ccc(C(=O)NO)cc32)cc1` (centres unmarked) [Compound I-101, N-hydroxy-4-(4-methoxybenzyl)-3-oxo-2-phenyl-3,4-dihydro-2H-benzo[b][1,4]oxazine-6-carboxamide], for which the half-inhibitory concentration (IC50) is below 0.025 µM in experiment [1] and at most 0.025 µM in experiment [2].

Consider `COc1ccc(CN2C(=O)C(Cc3ccccc3)Oc3ccc(C(=O)NO)cc32)cc1` (centres unmarked) [Compound I-102, 2-benzyl-N-hydroxy-4-(4-methoxybenzyl)-3-oxo-3,4-dihydro-2H-benzo[b][1,4]oxazine-6-carboxamide], for which the IC50 in experiment [1] is 0.025 to 0.1 µM; in experiment [2], at most 0.025 µM.

Take `COc1ccc(CN2C(=O)C(C(C)(C)C)Oc3ccc(C(=O)NO)cc32)cc1` (centres unmarked) [Compound I-103, 2-(tert-butyl)-N-hydroxy-4-(4-methoxybenzyl)-3-oxo-3,4-dihydro-2H-benzo[b][1,4]oxazine-6-carboxamide]: the figures for the IC50 in experiment [1] and in experiment [2] were below 0.025 µM and at most 0.025 µM, respectively.

Turning to `COc1ccc(CN2C(=O)C(CCN)Oc3ccc(C(=O)NO)cc32)cc1` (centres unmarked) [Compound I-104, 2-(2-aminoethyl)-N-hydroxy-4-(4-methoxybenzyl)-3-oxo-3,4-dihydro-2H-benzo[b][1,4]oxazine-6-carboxamide], the concentration for half-maximal inhibition (IC50) in experiment [1] is 0.025 to 0.1 µM; in experiment [2], at most 0.025 µM.

Consider `O=C(NO)c1ccc2c(c1)N(Cc1ccccc1)CCO2` [Compound I-116, 4-benzyl-N-hydroxy-3,4-dihydro-2H-benzo[b][1,4]oxazine-6-carboxamide], for which the IC50 in experiment [1] was 0.1 to 1 µM; in experiment [2], 0.025 to 0.1 µM.

In the case of `CS(=O)(=O)c1cccc(CN2CCOc3ccc(C(=O)NO)cc32)c1` [Compound I-125, N-hydroxy-4-(3-(methylsulfonyl)benzyl)-3,4-dihydro-2H-benzo[b][1,4]oxazine-6-carboxamide], the IC50 lay within 0.1 to 1 µM in experiment [1] and 0.025 to 0.1 µM in experiment [2].

Consider `CC(c1ccc(S(C)(=O)=O)cc1)N1CCOc2ccc(C(=O)NO)cc21` (centres unmarked) [Compound I-135, N-hydroxy-4-(1-(4-(methylsulfonyl)phenyl)ethyl)-3,4-dihydro-2H-benzo[b][1,4]oxazine-6-carboxamide], for which the concentration for half-maximal inhibition (IC50) in experiment [1] and in experiment [2] was 0.025 to 0.1 µM in each case.

With `COc1ccc(CN2C(=O)COc3ccc(C(=O)NO)cc32)cc1` [Compound I-141, N-hydroxy-4-(4-methoxybenzyl)-3-oxo-3,4-dihydro-2H-benzo[b][1,4]oxazine-6-carboxamide], the IC50 in experiment [1] was below 0.025 µM; in experiment [2] it was at most 0.025 µM.

As for `CS(=O)(=O)c1ccc(CN2C(=O)COc3ccc(C(=O)NO)cc32)cc1` [Compound I-142, N-hydroxy-4-(4-(methylsulfonyl)benzyl)-3-oxo-3,4-dihydro-2H-benzo[b][1,4]oxazine-6-carboxamide], the IC50 is below 0.025 µM in experiment [1] and at most 0.025 µM in experiment [2].

As to `O=C(NO)c1ccc2c(c1)N(Cc1cccc(Cl)c1)C(=O)CO2` [Compound I-143, 4-(3-chlorobenzyl)-N-hydroxy-3-oxo-3,4-dihydro-2H-benzo[b][1,4]oxazine-6-carboxamide], the figures for the 50% inhibitory concentration (IC50) in experiment [1] and in experiment [2] were below 0.025 µM and at most 0.025 µM, respectively.

For `CS(=O)(=O)c1cccc(CN2C(=O)COc3ccc(C(=O)NO)cc32)c1` [Compound I-145, N-hydroxy-4-(3-(methylsulfonyl)benzyl)-3-oxo-3,4-dihydro-2H-benzo[b][1,4]oxazine-6-carboxamide], the concentration for half-maximal inhibition (IC50) in experiment [1] and in experiment [2] was 0.025 to 0.1 µM each time.

Turning to `O=C(NO)c1ccc2c(c1)N(Cc1ccccc1Cl)C(=O)CO2` [Compound I-147, 4-(2-chlorobenzyl)-N-hydroxy-3-oxo-3,4-dihydro-2H-benzo[b][1,4]oxazine-6-carboxamide], the half-maximal inhibitory concentration (IC50) was below 0.025 µM in experiment [1] and 0.025 to 0.1 µM in experiment [2].

For the molecule `O=C(NO)c1ccc2c(c1)N(CC1CCCCC1)C(=O)CO2` [Compound I-149, 4-(cyclohexylmethyl)-N-hydroxy-3-oxo-3,4-dihydro-2H-benzo[b][1,4]oxazine-6-carboxamide], the IC50 in experiment [1] and in experiment [2] was 0.025 to 0.1 µM throughout.

Turning to `COc1ccc(CN2C(=O)C(C)Oc3ccc(C(=O)NO)cc32)cc1` (centres unmarked) [Compound I-151, N-hydroxy-4-(4-methoxybenzyl)-2-methyl-3-oxo-3,4-dihydro-2H-benzo[b][1,4]oxazine-6-carboxamide], the IC50 in experiment [1] was below 0.025 µM; in experiment [2] it was at most 0.025 µM.

Turning to `CC1Oc2ccc(C(=O)NO)cc2N(Cc2ccc(S(C)(=O)=O)cc2)C1=O` (centres unmarked) [Compound I-152, N-hydroxy-2-methyl-4-(4-(methylsulfonyl)benzyl)-3-oxo-3,4-dihydro-2H-benzo[b][1,4]oxazine-6-carboxamide], the figures for the 50% inhibitory concentration (IC50) in experiment [1] and in experiment [2] were below 0.025 µM and at most 0.025 µM, respectively.

Regarding `CC1COc2ccc(C(=O)NO)cc2N1Cc1ccccc1` (centres unmarked) [Compound I-154, 4-benzyl-N-hydroxy-3-methyl-3,4-dihydro-2H-benzo[b][1,4]oxazine-6-carboxamide], the IC50 in experiment [1] and in experiment [2] was 0.025 to 0.1 µM in each case.

With `COc1ccc(CN2C(=O)C3(CCC3)Oc3ccc(C(=O)NO)cc32)cc1` [Compound I-157, N-hydroxy-4-(4-methoxybenzyl)-3-oxo-3,4-dihydrospiro[benzo[b][1,4]oxazine-2,1′-cyclobutane]-6-carboxamide], the IC50 in experiment [1] and in experiment [2] was 0.025 to 0.1 µM in each case.

Take `COc1ccc(CN2C(=O)C(C)(C)Oc3ccc(C(=O)NO)cc32)c(F)c1` [Compound I-160, 4-(2-fluoro-4-methoxybenzyl)-N-hydroxy-2,2-dimethyl-3-oxo-3,4-dihydro-2H-benzo[b][1,4]oxazine-6-carboxamide]: the IC50 was below 0.025 µM in experiment [1] and at most 0.025 µM in experiment [2].

For `CC1(C)Oc2ccc(C(=O)NO)cc2N(Cc2ccc(Cl)cc2F)C1=O` [Compound I-161, 4-(4-chloro-2-fluorobenzyl)-N-hydroxy-2,2-dimethyl-3-oxo-3,4-dihydro-2H-benzo[b][1,4]oxazine-6-carboxamide], the half-maximal inhibitory concentration (IC50) in experiment [1] is below 0.025 µM; in experiment [2], at most 0.025 µM.

In the case of `Cc1ccc2nc(CN3C(=O)COc4ccc(C(=O)NO)cc43)oc2c1` [Compound I-213, N-hydroxy-4-((6-methylbenzo[d]oxazol-2-yl)methyl)-3-oxo-3,4-dihydro-2H-benzo[b][1,4]oxazine-6-carboxamide], the figures for the half-inhibitory concentration (IC50) in experiment [1] and in experiment [2] were below 0.025 µM and at most 0.025 µM, respectively.

Take `O=C(NO)c1ccc2c(c1)N(Cc1cn3ccccc3n1)C(=O)CO2` [Compound I-216, N-hydroxy-4-(imidazo[1,2-a]pyridin-2-ylmethyl)-3-oxo-3,4-dihydro-2H-benzo[b][1,4]oxazine-6-carboxamide]: the IC50 in experiment [1] and in experiment [2] was 0.025 to 0.1 µM each time.

As to `O=C(NO)c1ccc2c(c1)N(Cc1nc3cc(F)ccc3o1)C(=O)CO2` [Compound I-217, 4-((5-fluorobenzo[d]oxazol-2-yl)methyl)-N-hydroxy-3-oxo-3,4-dihydro-2H-benzo[b][1,4]oxazine-6-carboxamide], the 50% inhibitory concentration (IC50) is below 0.025 µM in experiment [1] and at most 0.025 µM in experiment [2].

On to `O=C(NO)c1ccc2c(c1)N(Cc1nc3ccc(F)cc3o1)C(=O)CO2` [Compound I-218, 4-((6-fluorobenzo[d]oxazol-2-yl)methyl)-N-hydroxy-3-oxo-3,4-dihydro-2H-benzo[b][1,4]oxazine-6-carboxamide], for which the values for the 50% inhibitory concentration (IC50) in experiment [1] and in experiment [2] were below 0.025 µM and at most 0.025 µM, respectively.

For `O=C(NO)c1ccc2c(c1)N(Cc1ccc(-c3ncco3)cc1)C(=O)CO2` [Compound I-221, N-hydroxy-4-(4-(oxazol-2-yl)benzyl)-3-oxo-3,4-dihydro-2H-benzo[b][1,4]oxazine-6-carboxamide], the values for the concentration for half-maximal inhibition (IC50) in experiment [1] and in experiment [2] were below 0.025 µM and at most 0.025 µM, respectively.

As to `O=C(NO)c1ccc2c(c1)N(Cc1ccn(-c3ccccc3)n1)C(=O)CO2` [Compound I-222, N-hydroxy-3-oxo-4-((1-phenyl-1H-pyrazol-3-yl)methyl)-3,4-dihydro-2H-benzo[b][1,4]oxazine-6-carboxamide], the IC50 in experiment [1] is below 0.025 µM; in experiment [2], at most 0.025 µM.

As for `O=C(NO)c1ccc2c(c1)N(Cc1cnn(-c3ccccc3)c1)C(=O)CO2` [Compound I-223, N-hydroxy-3-oxo-4-((1-phenyl-1H-pyrazol-4-yl)methyl)-3,4-dihydro-2H-benzo[b][1,4]oxazine-6-carboxamide], the IC50 was below 0.025 µM in experiment [1] and at most 0.025 µM in experiment [2].

What is called IC50 is the concentration that inhibits the measured activity by half.

Source of the values: patent US10370343B2, “[6,6] Fused bicyclic HDAC8 inhibitors” (FORMA Therapeutics, Inc., priority 2015, dated 2019).
